Results from US8334315B2, “Substituted aromatic carboxamide and urea derivatives as vanilloid receptor ligands” (Gruenenthal GmbH, priority 2009, dated 2012).

Molecular target: T1, rat-species vanilloid receptor 1 (VR1/TRPV1) (Rattus norvegicus, UniProt O35433)
T1 construct: endogenous in cells; host or cells: primary cells dissociated from rat dorsal root ganglia (DRG), cultured 2-3 days with NGF
Assay: Functional test on rat VR1, NADA (N-arachidonoyl dopamine) stimulus
Format: cell-based
Design: key to Ki (rat) NADA: agonist / partial agonist / no effect: AG=agonist; pAG=partial agonist; NE=no effect
Source text: I. Functional Testing Carried Out on the Vanilloid Receptor 1 (VRI/TRPV1 Receptor)
The agonistic or antagonistic effect of the substances to be tested on the rat-species vanilloid receptor 1 (VR1/TRPV1) can be determined using the following assay. In this assay, the influx of Ca^2+ through the receptor channel is quantified with the aid of a Ca^2+-sensitive dye (type Fluo-4, Molecular Probes Europe BV, Leiden, the Netherlands) in a fluorescent imaging plate reader (FLIPR, Molecular Devices, Sunnyvale, USA).
The vertebral column is removed from decapitated rats and placed immediately into cold HBSS buffer (Hank's buffered saline solution, Gibco Invitrogen GmbH, Karlsruhe, Germany), i.e. buffer located in an ice bath, mixed with 1% by volume (per cent by volume) of an AA solution (antibiotic/antimyotic solution, PAA, Pasching, Austria). […] The resulting pellet is respectively taken up in 250 μL of complete medium and the cell count is determined.
The number of cells in the suspension is set to 3×10^5 per ml and 150 μL of this suspension are in each case introduced into a recess in the cell culture plates coated as described hereinbefore. […] The Ca^2+-dependent fluorescence is in this case measured before and after the addition of substances (λex=488 nm, λem=540 nm). Quantification is carried out by measuring the highest fluorescence intensity (FC, fluorescence counts) over time. […]

T1 sequence (O35433 whole entry): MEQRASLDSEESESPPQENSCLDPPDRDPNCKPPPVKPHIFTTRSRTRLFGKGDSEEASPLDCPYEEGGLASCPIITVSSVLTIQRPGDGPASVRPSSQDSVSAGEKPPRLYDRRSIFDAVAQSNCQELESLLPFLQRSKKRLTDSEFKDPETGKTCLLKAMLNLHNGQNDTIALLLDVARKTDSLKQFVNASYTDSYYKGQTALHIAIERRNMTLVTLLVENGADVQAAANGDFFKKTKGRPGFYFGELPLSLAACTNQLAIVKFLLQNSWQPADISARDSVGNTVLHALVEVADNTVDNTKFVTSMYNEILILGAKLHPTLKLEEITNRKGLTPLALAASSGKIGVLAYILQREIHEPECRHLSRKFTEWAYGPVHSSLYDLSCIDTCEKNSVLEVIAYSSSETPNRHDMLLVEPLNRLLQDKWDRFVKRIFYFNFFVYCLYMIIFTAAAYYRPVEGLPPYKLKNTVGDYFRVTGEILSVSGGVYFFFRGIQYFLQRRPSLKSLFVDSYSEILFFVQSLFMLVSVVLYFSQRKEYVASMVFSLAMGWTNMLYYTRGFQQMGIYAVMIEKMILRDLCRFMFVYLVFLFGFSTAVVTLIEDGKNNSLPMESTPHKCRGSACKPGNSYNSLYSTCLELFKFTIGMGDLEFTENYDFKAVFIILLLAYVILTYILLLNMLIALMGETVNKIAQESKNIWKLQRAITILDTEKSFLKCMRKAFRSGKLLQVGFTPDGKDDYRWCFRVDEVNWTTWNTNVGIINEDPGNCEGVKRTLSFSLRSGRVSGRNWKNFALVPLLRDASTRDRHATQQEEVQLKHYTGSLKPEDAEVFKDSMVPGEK

Ki [nM]	Ki (rat) NADA: agonist / partial agonist / no effect	SMILES
39.1		CC(C)(C)c1cc(CNC(=O)Nc2ccc3c(c2)CCC3)n(-c2cccc(Cl)c2)n1 [Example 79, 1-((3-tert-butyl-1-(3-chlorophenyl)-1H-pyrazol-5-yl)methyl)-3-(2,3-dihydro-1H-inden-5-yl)urea]
	AG	Cc1nc2ccc(C(C)C(=O)NCc3cc(C(F)(F)F)nn3-c3cccc(Cl)c3)cc2s1 (centres unmarked) [Example 45, N-((1-(3-chlorophenyl)-3-(trifluoromethyl)-1H-pyrazol-5-yl)methyl)-2-(2-methylbenzo[d]thiazol-6-yl)propanamide]
